Four molecules from patent US11332430B1, “Pleuromulin lauric acid ester with antibacterial activity and a method of preparing the same” (priority 2021, dated 2022) can be followed below.

One assay relates to MRSA-206. The experiment in a line: paper diffusion method drug sensitivity test, MRSA-206. Particulars: 30 μg/tablet, 37° C., 24 h, ≥17 mm sensitive, 15-16 mm intermediary, ≤14 mm drug resistance. It is filed as cell-based, Staphylococcus aureus.
The subject of the next assay is MRSA-575. The experiment in a line: paper diffusion method drug sensitivity test, MRSA-575. Particulars: 30 μg/tablet, 37° C., 24 h, ≥17 mm sensitive, 15-16 mm intermediary, ≤14 mm drug resistance. It is filed as cell-based, Staphylococcus aureus. Here is the method:
(§1) The antimicrobial efficacy was determined by a paper diffusion method drug sensitivity test.
(§2) Experimental strains: multi-resistant Staphylococcus aureus 171, multi-resistant Staphylococcus aureus 575, multi-resistant Staphylococcus aureus 596. The experimental strain was identified by Huashan Hospital Affiliated to Fudan University (Institute of Antibiotic of Fudan University).
(§3) Drug sensitive paper: The drug sensitive paper is a special drug sensitive paper with a diameter of 6.35 mm and a water absorption of 0.02 mL. The control was vancomycin (30 μg/tablet); the test compounds were pleuromulin (30 μg/tablet), lauric acid (30 μg/tablet) and pleuromulin lauric acid ester (30 μg/tablet).
(§4) The experimental strains were inoculated in non-selective medium and placed in air at 37° C. for 24 h. A single colony that grows well and inoculate it into broth medium was incubate at 35° C.±2° C. for 6 hours, and LA broth medium was used to calibrate the concentration of the bacterial solution to 0.5 Mie turbidimetric tube (1.5×10^8 CFU/mL). A bacterial suspension was obtained.
(§5) LB dry powder was weighed, sterilized at 103.4 Kpa, 121.3° C. high-pressure steam for 15 min, and then placed it in a 40° C.-50° C. water bath. A sterile empty plate (inner diameter 9 cm) was placed on the surface of the ultra-clean table water table, and […] was poured to the plate. The thickness of each plate was 3 mm to 4 mm. After the plate was cooled at room temperature, it was stored in the refrigerator at 2° C.-8° C. A sterile cotton swab was used to dip the bacterial solution and ti evenly coat the surface of the LB plate 3 times. After inoculation of the bacterial suspension, the LB plate was dried at room temperature for 3 min to 5 min. Sterile forceps were used to closely attach the antibacterial drug paper to the dish. The dish was put upside down and placed in a 37° C. incubator for 24 h. The results were observed by measuring the diameter. Taking 0.5% DMSO solution as a negative control, the antibacterial activity is expressed by the diameter of the inhibition zone. The inhibition zone ≥17 mm, sensitive; the inhibition zone of 15 mm-16 mm, intermediary; the inhibition zone ≤14 mm, drug resistance.

The test system of the next assay is MRSA-596. The experiment in a line: paper diffusion method drug sensitivity test, MRSA-596. The format is cell-based, Staphylococcus aureus. Particulars: 30 μg/tablet, 37° C., 24 h, ≥17 mm sensitive, 15-16 mm intermediary, ≤14 mm drug resistance. Here is the method:
as §1, §2, §3, §4, §5

Assay [1] deals with multi-drug resistant Staphylococcus aureus 206, 575, 596. Briefly: paper diffusion method drug sensitivity test, summary over the strains. It is filed as cell-based. Particulars: 30 μg/tablet. As to the method: as §1, §2, §3, §4, §5
Setting [2] is: listed as Pleuromutilin lauric acid derivative.

Structures are written as SMILES.

For `C=C[C@]1(C)C[C@@H](OC(=O)CO)[C@]2(C)[C@H](C)CC[C@]3(CCC(=O)[C@H]32)[C@@H](C)[C@@H]1O` [Pleuromulin], the Zone of inhibition with MRSA-206, in the assay with MRSA-575 and in the assay with MRSA-596 was 0 mm throughout. Further, the “inhibitory effect on drug-resistant bacteria (in words)” value (from here on “inhibitory effect”) in assay [1] was “no inhibitory effect”.

Turning to `C=C[C@]1(C)C[C@@H](OC(=O)COC(=O)CCCCCCCCCCC)[C@]2(C)CC[C@@H](C)[C@@]3(CCC(=O)[C@@H]23)[C@@H](C)[C@@H]1O` [Pleuromulinlauric acid ester, 2-(((3aS,4R,5S,6S,8R,9R,9aR,12R)-5-hydroxy-4,6,9,12-tetramethyl-1-oxo-6-vinyldecahydro-3a,9-propanocyclopenta[8]annulen-8-yl)oxy)-2-oxoethyl Dodecanoate], the Zone of inhibition is listed as 13 mm with MRSA-206, 25 mm in the assay on MRSA-575, “up to 25 mm” in the assay on MRSA-575 (setting [2]) and 12 mm with MRSA-596. Further, the results for the “inhibitory effect” value in assay [1] and in assay [1] (setting [2]) were “excellent antibacterial activity” and “strong inhibitory effects”, respectively.

On to `CCCCCCCCCCCC(=O)O` [Laurie acid, Lauric acid], for which the Zone of inhibition in the assay on MRSA-206, in the assay on MRSA-575 and in the assay with MRSA-596 was 0 mm throughout. Besides, the “inhibitory effect” value in assay [1] is “no inhibitory effect”.

Consider `CN[C@H](CC(C)C)C(=O)N[C@H]1C(=O)N[C@@H](CC(N)=O)C(=O)N[C@H]2C(=O)N[C@H]3C(=O)N[C@H](C(=O)N[C@H](C(=O)O)c4cc(O)cc(O)c4-c4cc3ccc4O)[C@H](O)c3ccc(c(Cl)c3)Oc3cc2cc(c3O[C@@H]2O[C@H](CO)[C@@H](O)[C@H](O)[C@H]2O[C@H]2C[C@](C)(N)[C@H](O)[C@H](C)O2)Oc2ccc(cc2Cl)[C@H]1O` [Vancomycin], for which the Zone of inhibition turned out to be 15 mm with MRSA-206, 17 mm in the assay with MRSA-575 and 23 mm in the assay on MRSA-596.
